ChEMBL document CHEMBL5390242, “Design, Synthesis, and Antitumor Efficacy of Substituted 2-Amino[1,2,4]triazolopyrimidines and Related Heterocycles as Dual Inhibitors for Microtubule Polymerization and Janus Kinase 2” (J Med Chem, 2023)
The source made the active and inactive calls. No cut-off for these calls is given here.

What was measured:
[1] = Metabolic stability in mouse liver microsomes assessed as half life incubated for 10 mins in presence of NADPH by LC-MS/MS analysis; format: ADME, Microsome
A549 [2] = assay: Induction of apoptosis in human A549 cells at 5 uM incubated for 24 hrs by Annexin V-FITC/PI staining based flow cytometry; format: functional
[3] = molecular target: Tyrosine-protein kinase JAK1 (Homo sapiens, UniProt P23458); assay: Inhibition of JAK1 (unknown origin) using Poly-(Glu,Tyr 4:1) peptide as substrate in presence of ATP by ADP-Glo reagent based assay
Chain of Tyrosine-protein kinase JAK1 (P23458 whole entry): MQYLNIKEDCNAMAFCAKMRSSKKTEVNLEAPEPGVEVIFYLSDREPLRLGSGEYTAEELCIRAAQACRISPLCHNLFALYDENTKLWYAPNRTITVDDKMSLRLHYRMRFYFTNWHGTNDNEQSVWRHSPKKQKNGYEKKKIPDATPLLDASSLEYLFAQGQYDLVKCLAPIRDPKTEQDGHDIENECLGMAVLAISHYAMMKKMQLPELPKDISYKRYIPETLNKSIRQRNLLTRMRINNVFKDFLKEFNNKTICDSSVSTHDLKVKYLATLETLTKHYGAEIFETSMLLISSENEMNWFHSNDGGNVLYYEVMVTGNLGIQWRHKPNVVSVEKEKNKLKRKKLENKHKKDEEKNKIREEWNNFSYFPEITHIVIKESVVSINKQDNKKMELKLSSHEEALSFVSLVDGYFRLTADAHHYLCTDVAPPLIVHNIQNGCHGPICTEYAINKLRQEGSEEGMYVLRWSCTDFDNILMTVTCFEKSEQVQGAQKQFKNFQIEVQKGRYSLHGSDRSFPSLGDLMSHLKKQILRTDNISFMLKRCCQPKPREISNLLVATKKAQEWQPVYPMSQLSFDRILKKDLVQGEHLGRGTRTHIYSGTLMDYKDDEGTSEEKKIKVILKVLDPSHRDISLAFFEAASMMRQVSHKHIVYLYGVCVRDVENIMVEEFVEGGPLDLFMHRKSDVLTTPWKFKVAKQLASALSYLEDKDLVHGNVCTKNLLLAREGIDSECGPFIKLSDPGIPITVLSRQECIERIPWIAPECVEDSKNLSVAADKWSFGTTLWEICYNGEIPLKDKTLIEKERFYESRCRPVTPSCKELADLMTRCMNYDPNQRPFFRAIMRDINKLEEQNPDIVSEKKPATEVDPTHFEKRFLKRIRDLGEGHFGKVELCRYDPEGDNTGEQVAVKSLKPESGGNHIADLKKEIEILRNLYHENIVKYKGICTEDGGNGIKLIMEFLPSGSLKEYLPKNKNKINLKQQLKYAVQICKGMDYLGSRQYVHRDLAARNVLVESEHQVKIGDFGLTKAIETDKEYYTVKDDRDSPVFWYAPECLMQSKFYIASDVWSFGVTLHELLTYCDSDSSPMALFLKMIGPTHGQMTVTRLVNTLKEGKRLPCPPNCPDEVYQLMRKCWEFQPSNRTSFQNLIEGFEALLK

COLO 205 = assay: Cytotoxicity against human COLO 205 cells assessed as cell growth inhibition incubated for 48 hrs by MTT assay; format: functional, cell-based; conditions: COLO 205, 48 h
CWR22R = assay: Cytotoxicity against human 22Rv1 cells assessed as cell growth inhibition incubated for 48 hrs by MTT assay; format: functional, cell-based; conditions: 22Rv1, 48 h
HepG2 = assay: Cytotoxicity against human HepG2 cells assessed as cell growth inhibition incubated for 48 hrs by MTT assay; format: functional, cell-based; conditions: HepG2, 48 h
[4] = Resistance index, ratio of IC50 for antiproliferative activity against human A549/DDP cells to IC50 for antiproliferative activity against human A549 cells; format: functional
HT-29 = assay: Antiproliferative activity against human HT-29 cells assessed as cell growth inhibition incubated for 48 hrs by MTT assay; format: functional, cell-based; conditions: HT-29, 48 h
[5] = Antiproliferative activity against Chinese hamster CHO-K1 cells assessed as cell growth inhibition incubated for 48 hrs by MTT assay; format: toxicity, cell-based, Cricetulus griseus
[6] = AUC (0 to infinity) in CD-1 mouse at 1 mg/kg,iv measured upto 24 hrs by HPLC-MS/MS analysis; format: ADME, organism-based; parameters: dose 1 mg/kg, time < 24 hrs, route iv; conditions: in vivo
[7] = MRT (0 to infinity) in CD-1 mouse at 1 mg/kg,iv measured upto 24 hrs by HPLC-MS/MS analysis; format: ADME, organism-based; conditions: in vivo
[8] = Tmax in CD-1 mouse at 1 mg/kg,iv measured upto 24 hrs by HPLC-MS/MS analysis; format: ADME, organism-based; conditions: in vivo
[9] = Cmax in CD-1 mouse at 1 mg/kg,iv measured upto 24 hrs by HPLC-MS/MS analysis; format: ADME, organism-based; parameters: dose 1 mg/kg, time < 24 hrs, route iv; conditions: in vivo
[10] = Cmax in CD-1 mouse at 10 mg/kg,ip measured upto 24 hrs by HPLC-MS/MS analysis; format: ADME, organism-based; parameters: time < 24 hrs, dose 10 mg/kg, route ip; conditions: in vivo
[11] = Oral bioavailability in CD-1 mouse at 10 mg/kg,ip measured upto 24 hrs by HPLC-MS/MS analysis; format: ADME, organism-based; conditions: in vivo
[12] = Tmax in CD-1 mouse assessed as Tmax of metabolite at 10 mg/kg,ip measured upto 24 hrs by HPLC-MS/MS analysis; format: ADME, organism-based; conditions: in vivo
[13] = Cmax in CD-1 mouse assessed as Cmax of metabolite at 10 mg/kg,ip measured upto 24 hrs by HPLC-MS/MS analysis; format: ADME, organism-based; parameters: time < 24 hrs, dose 10 mg/kg, route ip; conditions: in vivo
Tubulin = Tubulin (Sus scrofa, UniProt P02554+P02550); assay: Inhibition of porcine brain tubulin polymerization measured for 30 mins in presence of GTP by microplate reader assay; format: tissue-based
[14] = molecular target: Tubulin beta (Homo sapiens) (UniProt P68371+Q9H4B7+Q13509+P04350+Q3ZCM7+P07437+Q13885+Q9BVA1+Q9BUF5+A6NNZ2); assay: Binding affinity to beta-tubulin colchicine binding site in human A549 cells assessed as inhibition of EBI-beta-tubulin adduct band formation at 1 to 25 uM preincubated for 2 hrs followed by EBI addition measured after 1.5 hrs by EBI competition based Western blotting analysis; format: cell-based; conditions: dose 1-25 µM
[15] = molecular target: JAK2-STAT3 (Homo sapiens) (UniProt O60674+P40763); assay: Inhibition of JAK2/STAT3 signalling pathway in human A549 cells assessed as downregulation of JAK2 phosphorylation incubated for 24 hrs by Western blotting analysis; format: cell-based
A549 [16] = assay: Induction of apoptosis in human A549 cells assessed as early apoptotic cells at 20 nM incubated for 24 hrs by Annexin V-FITC/PI staining based flow cytometry (reference value: 4.61 %); format: functional
A549 [17] = assay: Induction of apoptosis in human A549 cells assessed as late apoptotic cells at 10 nM incubated for 24 hrs by Annexin V-FITC/PI staining based flow cytometry (reference value: 1.72 %); format: functional
A549 [18] = assay: Induction of apoptosis in human A549 cells assessed as increase in mitochondrial ROS level at 5 to 20 nM incubated for 16 hrs by MitoSOX red dye based fluorescence microscopy; format: functional, cell-based; conditions: dose 5-20 nM
A549 [19] = assay: Induction of apoptosis in human A549 cells assessed as reduction of mitochondrial membrane potential incubated for 16 hrs by JC-1 staining based flow cytometry analysis; format: functional, cell-based
A549 [20] = assay: Induction of mitochondrial membrane potential loss in human A549 cells by measuring green fluorescence at 5 nM incubated for 16 hrs by JC-1 staining based flow cytometry analysis (reference value: 0.7 %); format: functional
A549 [21] = assay: Antitumor activity against human A549 cells xenografted in Balb/c mouse assessed as tumor size at 50 mg/kg,ip administration measured after 31 days; format: functional; conditions: time 31 day

COc1cc(-c2nccc3nc(Nc4cccc5[nH]ccc45)nn23)cc(OC)c1OC
half-life [1]: 21.7 min
Activity (A549 [2]): 8.9%
IC50 [3]: > 20000 nM
IC50 (COLO 205): 12.1 nM
IC50 (CWR22R): 12.4 nM
IC50 (HepG2): 51.8 nM
Ratio IC50 [4]: 0.5
IC50 (HT-29): 27 nM
IC50 at 48 h [5]: 130 nM
AUC(0-inf) [6]: 390 ng·h/mL
MRT inf [7]: 426 min
Tmax [8]: 6 min
Cmax [9]: 117 ng/mL
Cmax [10]: 158 ng/mL
bioavailability [11]: 15.4%
Tmax [12]: 60 min
Cmax [13]: 700.2 ng/mL
IC50 (Tubulin): 1300 nM
Activity [14]: Active
inhibition [15]: Dose-Dependent Effect
Activity (A549 [16]): 34.6%
Activity (A549 [17]): 14.7%
Activity (A549 [18]): Active
Activity (A549 [19]): Dose-Dependent Effect
Activity (A549 [20]): 10.9%
Activity (A549 [21]): 315.8 mm3
